Experimental data from article PMC7562955 (Nature Communications, 2020).

Biological target: T1, human TLR9 (Homo sapiens, UniProt Q9NR96)
T1 construct: host or cells: HEK293 (TLR9/NF-κB/SEAPorter)
T1 sequence (Q9NR96 26-1032): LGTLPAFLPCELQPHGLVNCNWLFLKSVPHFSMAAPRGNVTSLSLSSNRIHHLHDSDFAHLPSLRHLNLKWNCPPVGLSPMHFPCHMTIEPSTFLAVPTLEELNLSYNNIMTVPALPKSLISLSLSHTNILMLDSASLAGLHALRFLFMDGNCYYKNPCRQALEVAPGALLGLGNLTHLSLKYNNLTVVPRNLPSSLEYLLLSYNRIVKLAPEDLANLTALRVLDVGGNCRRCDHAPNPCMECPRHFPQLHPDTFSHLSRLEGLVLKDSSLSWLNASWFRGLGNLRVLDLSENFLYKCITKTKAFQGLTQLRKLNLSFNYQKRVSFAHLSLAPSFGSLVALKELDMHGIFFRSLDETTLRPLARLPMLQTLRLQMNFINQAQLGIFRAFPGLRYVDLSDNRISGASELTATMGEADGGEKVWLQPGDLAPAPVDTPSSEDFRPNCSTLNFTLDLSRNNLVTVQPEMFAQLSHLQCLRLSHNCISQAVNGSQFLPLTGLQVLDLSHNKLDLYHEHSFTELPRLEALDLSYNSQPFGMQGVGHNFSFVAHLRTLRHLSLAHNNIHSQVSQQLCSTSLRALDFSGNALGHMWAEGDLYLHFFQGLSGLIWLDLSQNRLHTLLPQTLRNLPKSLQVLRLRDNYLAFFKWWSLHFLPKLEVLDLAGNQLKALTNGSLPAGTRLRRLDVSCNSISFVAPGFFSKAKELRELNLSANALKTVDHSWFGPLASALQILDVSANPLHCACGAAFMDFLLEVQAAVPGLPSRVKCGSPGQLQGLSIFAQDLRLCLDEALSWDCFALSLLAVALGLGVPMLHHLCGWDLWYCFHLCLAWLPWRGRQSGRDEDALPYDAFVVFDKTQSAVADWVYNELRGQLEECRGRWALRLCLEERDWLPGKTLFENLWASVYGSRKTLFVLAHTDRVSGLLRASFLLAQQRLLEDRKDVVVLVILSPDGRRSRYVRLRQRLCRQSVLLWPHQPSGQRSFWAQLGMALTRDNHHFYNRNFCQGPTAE
Test: Human TLR9 reporter gene inhibitory activity assay (NF-κB/SEAP HEK293)
Format: cell-based
Conditions: for human TLR9 activity, reporter signal: CpG2006 500 nM
Experimental: Compounds were dissolved in dimethyl sulfoxide. Before stimulation with compound, Human TLR7 reporter cell line (TLR7/NF-κB/SEAPorter^TM HEK293 cell, Novus Biological, USA), human TLR8 reporter cell line (TLR8/NF-κB/SEAPorter^TM HEK293 cell, Novus Biological), and human TLR9 reporter cell line (TLR9/NF-κB/SEAPorter^TM HEK293 cell, Novus Biological) were seeded in 96-well microtiter plate (AGC techno glass, Japan) at 5 × 10^4 cells/well in DMEM (GIBCO, United Kingdam) with 10 % fetal bovine serum (GIBCO), and 10 ug/ml Blastcidin S HCl (GIBCO) and incubated at 37 °C in 5% CO2. The plates were incubated over-night and then stimulated with various concentrations of compound. […] After 30 min, R848 (human TLR7/8 ligand, synthesized at Sumitomo Dainippon Pharma, Japan) or CpG2006 (human TLR9 ligand, Hokkaido System Science Co., Ltd., Japan) added to each well, wherein each final concentration were adjusted to 200 nM R848 (human TLR7), 30 μM R848 (human TLR8), or 500 nM CpG2006 (human TLR9). The plates were then incubated an additional 20 ± 1 h at 37 °C in 5% CO2 and then the secreted embryonic alkaline phosphatase (SEAP) activity was measured as activation of human TLR7, 8, and 9. The SEAP activity was evaluated as follows: pNPP (Invitrogen, USA) was added to the incubated sample (50 μl/well); after 15 min, 4 M sodium hydroxide solution (nacalai tesque, Japan) was added thereto (50 μl/well) to quench the reaction; and the absorbance of each sample was measured at 405 nm with microplate reader SpectraMax M4 (Molecular Devices, USA).

Question: What does the source list for `CCCCOc1nc(N)c2nc(-c3cccnc3)n(Cc3ccccc3)c2n1` [Cpd-5]?
Answer: inhibition of TLR9: without causing any inhibition; human TLR9 activity, reporter signal (compound 0.0001 nM (as headed)): 0.3823; human TLR9 activity, reporter signal (compound 0.001 nM (as headed)): 0.4021; human TLR9 activity, reporter signal (compound 0.003 nM (as headed)): 0.4541; human TLR9 activity, reporter signal (compound 0.01 nM (as headed)): 0.4157; human TLR9 activity, reporter signal (compound 0.03 nM (as headed)): 0.4224; human TLR9 activity, reporter signal (compound 0.1 nM (as headed)): 0.4068; human TLR9 activity, reporter signal (compound 0.3 nM (as headed)): 0.4193; human TLR9 activity, reporter signal (compound 1 nM (as headed)): 0.3613; human TLR9 activity, reporter signal (compound 3 nM (as headed)): 0.3381; human TLR9 activity, reporter signal (compound 10 nM (as headed)): 0.3129; human TLR9 activity, reporter signal (compound 30 nM (as headed)): 0.2475; human TLR9 activity, reporter signal (compound 100 nM (as headed)): 0.2357

Question: For `CCOc1nc(N)c2nc(-c3cncc(F)c3)n(Cc3ccc(CN4C[C@@H]5C[C@H]4CN5C)cc3)c2n1` [Cpd-6], which “human TLR9 activity, reporter signal” value (compound 0.0001 nM (as headed)) is on record?
Answer: 0.3816

Question: What about the “human TLR9 activity, reporter signal” value (compound 0.001 nM (as headed)) of the same molecule?
Answer: 0.371

Question: What about the “human TLR9 activity, reporter signal” value (compound 0.003 nM (as headed)) of the same molecule?
Answer: 0.3771

Question: And the “human TLR9 activity, reporter signal” value (compound 0.01 nM (as headed))?
Answer: 0.3689

Question: What about the “human TLR9 activity, reporter signal” value (compound 0.03 nM (as headed)) of the same molecule?
Answer: 0.3826

Question: And the “human TLR9 activity, reporter signal” value (compound 0.1 nM (as headed))?
Answer: 0.3836

Question: And the “human TLR9 activity, reporter signal” value (compound 0.3 nM (as headed))?
Answer: 0.372

Question: What about the “human TLR9 activity, reporter signal” value (compound 1 nM (as headed)) of the same molecule?
Answer: 0.3752

Question: What about the “human TLR9 activity, reporter signal” value (compound 3 nM (as headed)) of the same molecule?
Answer: 0.3176

Question: And the “human TLR9 activity, reporter signal” value (compound 10 nM (as headed))?
Answer: 0.265

Question: What about the “human TLR9 activity, reporter signal” value (compound 30 nM (as headed)) of the same molecule?
Answer: 0.06893

Question: And the “human TLR9 activity, reporter signal” value (compound 100 nM (as headed))?
Answer: 0.01837

Question: Which results are given for `CCOc1nc(C)c2nc(-c3cncc(F)c3)n(Cc3ccc(CN4C[C@@H]5C[C@H]4CN5C)cc3)c2n1` [Cpd-7]?
Answer: human TLR9 activity, reporter signal (compound 0.0001 nM (as headed)): 0.3816; human TLR9 activity, reporter signal (compound 0.001 nM (as headed)): 0.3944; human TLR9 activity, reporter signal (compound 0.003 nM (as headed)): 0.4214; human TLR9 activity, reporter signal (compound 0.01 nM (as headed)): 0.4209; human TLR9 activity, reporter signal (compound 0.03 nM (as headed)): 0.4048; human TLR9 activity, reporter signal (compound 0.1 nM (as headed)): 0.3963; human TLR9 activity, reporter signal (compound 0.3 nM (as headed)): 0.3799; human TLR9 activity, reporter signal (compound 1 nM (as headed)): 0.3655; human TLR9 activity, reporter signal (compound 3 nM (as headed)): 0.3183; human TLR9 activity, reporter signal (compound 10 nM (as headed)): 0.2034; human TLR9 activity, reporter signal (compound 30 nM (as headed)): 0.05003; human TLR9 activity, reporter signal (compound 100 nM (as headed)): -0.002975

Question: Which “human TLR9 activity, reporter signal” value (compound 0.0001 nM (as headed)) does the source give for `CCN(CCO)CCCC(C)Nc1ccnc2cc(Cl)ccc12` (centres unmarked) [HCQ, hydroxychloroquine, reference compound] here?
Answer: 0.3549

Question: And the “human TLR9 activity, reporter signal” value (compound 0.01 nM (as headed))?
Answer: 0.3663

Question: And the “human TLR9 activity, reporter signal” value (compound 0.03 nM (as headed))?
Answer: 0.3271

Question: What about the “human TLR9 activity, reporter signal” value (compound 0.1 nM (as headed)) of the same molecule?
Answer: 0.2912

Question: And the “human TLR9 activity, reporter signal” value (compound 0.3 nM (as headed))?
Answer: 0.1984

Question: What about the “human TLR9 activity, reporter signal” value (compound 1 nM (as headed)) of the same molecule?
Answer: 0.0758

Question: And the “human TLR9 activity, reporter signal” value (compound 3 nM (as headed))?
Answer: 0.0184

Question: What about the “human TLR9 activity, reporter signal” value (compound 10 nM (as headed)) of the same molecule?
Answer: -0.013

Question: And the “human TLR9 activity, reporter signal” value (compound 30 nM (as headed))?
Answer: -0.01145

Question: And the “human TLR9 activity, reporter signal” value (compound 100 nM (as headed))?
Answer: -0.00085
